Entries after “also recorded” stand apart in the source; their conditions may differ. Read-outs that look alike come from different tables or passages of the source.
Experiments:
male Sprague-Dawley rats = format: in vivo
Excerpt: In all rodent studies, male Sprague-Dawley rats were used (200-225 g, Taconic farms, Germantown, N.Y.). Animals were allowed to acclimate to the animal housing facility for at least 5 days prior to beginning the experiments. […] The conditioning procedure for the acquisition phase consisted of 12 sessions carried out consecutively over 12 days.
The animals in each group were randomly assigned to a 2×2 factorial design with one factor being the pairing chamber and the other factor being the order of conditioning. The animals that received either saline or cocaine were injected and confined to the appropriate compartment for 30 minutes.
[…] The amount of time spent in each chamber was recorded using an automated infrared beam electronically coupled to a timer.
In this example the procedure outlined in Section 2 of Materials and Methods was followed.

rats = assay: Nicotine-induced conditioned place preference; format: in vivo
Excerpt: A total of 8 rats were examined for each treatment pairing. Animals received 4 pairings over an 8 day period, one pairing per day. […] The protocol on days 1 and 2 was repeated 3 additional times.
The CPP apparatus was made entirely of plexiglass, except for the floor in one of the pairing chambers, which was made of a stainless steel plate with holes (0.5 mm in diameter) spaced 0.5 mm from edge to edge. The two pairing chambers differed in visual and tactile cues. One chamber was entirely light blue with the stainless steel floor and the second chamber was light blue with horizontal black stripes (2.5 cm wide) spaced 3.8 cm apart with a smooth plexiglass floor.
The conditioning procedure consisted of 20 sessions carried out consecutively over 20 days. The first three sessions were habituation sessions, during which the animals were handled for 5 minutes per day and exposed to the sights and sounds of the test room. […] The amount of time spent in each chamber was recorded using an automated infrared beam electronically coupled to a timer.
The animals were habituated as described above. […] Subsequently, the animals were then placed into the appropriate chamber for 30 minutes. This was repeated for 8 pairings over a 16 day period. On the test day, animals were placed in the CPP apparatus and allowed free access to the all of the CPP chambers and the amount of time spent in chamber was recorded.

freely moving rats = assay: Cocaine-induced stereotypy after a sensitizing regimen of cocaine; format: in vivo
Procedure: The phenomenon of sensitization is observed with virtually all drugs of addiction. Sensitization is believed to play a role in the etiology of addiction.
Animals received 15 mg/kg i.p. of cocaine and stereotypy was determined in standard locomotor cages. For 6 consecutive days, animals received 15 mg/kg i.p. of cocaine once a day in their home cages. Eight days later, animals were rechallenged with 15 mg/kg i.p. of cocaine and stereotypy was determined. A five point rating scale was used to assess stereotypy and the rater was blind to the treatment received by each animal.

[1] = tested on: extracellular DA in the NACC; assay: Microdialysis: methamphetamine-induced increases in NACC DA; format: in vivo, rats; conditions: Rattus norvegicus
Excerpt: All animals were used under an IACUC-approved protocol and with strict adherence to the NIH guidelines. Adult male Sprague-Dawley rats (200-300 g, Taconic Farms), housed in the animals care facility under 12:12 light/dark conditions, were placed into 6 groups (n=5-9), anesthetized and siliconized guide cannulae were stereotactically implanted into the right NACC (2.0 mm anterior and 1.0 mm lateral to bregms, and 7.0 mm ventral to the cortical surface) at least 4 days prior to study. Microdialysis probes (2.0 mm, Bioanalytical Systems, BAS, West Lafayette, Ind.) were positioned within the guide cannulae and artificial cerebrospinal fluid (ACSF, 155.0 mM NA^−, 1.1 mM Ca^2−, 2.9 mM K^−, 132.76 mM Cl^−, and 0.83 mM Mg^2−) was administered through the probe using a CMA/100 microinfusion pump (BAS) at a flow rate of 2.0 μl/min. Animals were placed in bowls, and probes were inserted and flushed with ACSF overnight. On the day of the study, a minimum of three samples were injected to determine baseline stability. Samples were collected for 20 min. and injected on-line (CMA/160, BAS). The average Dopamine concentration of these three stable samples was defined as control (100%), and all subsequent treatment values were transformed to a percentage of that control. […] The high performance liquid chromatography (HPLC) system consists of a BAS reverse-phase column (3.0 μC-18), a BAS LC-4C electrochemical transducer with a dual/glassy carbon electrode set at 650 mV, a computer that analyzes data on-line using a commercial software package (Chromograph Bioanalytical Systems), and a dual pen chart recorder. The mobile phase (flow rate 1.0 ml/min) consisted of 7.0% methanol, 50 mM sodium phosphate monobasic, 1.0 mM sodium octyl sulfate, and 0.1 mm […], pH 4.0. DA eluted at 7.5 min. Upon completion of the study, animals were decapitated and frozen sections were obtained for probe placement verification.
Methamphetamine at a dose of 1.25 mg/kg i.p. and 2.5 mg/kg i.p. was administered to the animals. It was noted that methamphetamine elevated extracellular DA concentrations in the NACC by approximately 2500% over basal levels, 100 minutes following administration of 2.5 mg/kg and approximately 1500% over basal levels following administration of 1.25 mg/kg (FIG. 6). DA returned to basal levels approximately 200 minutes following administration.

[2] = in vivo; cited from earlier work
[3] = acquisition, 75 mg/kg GVG 2.5 hours prior to cocaine 20 mg/kg
[4] = acquisition, 75 mg/kg GVG/Saline pairing
[5] = acquisition, 112 mg/kg GVG 2.5 hours prior to cocaine 20 mg/kg
[6] = acquisition, 112 mg/kg GVG/Saline pairing
[7] = acquisition, 150 mg/kg GVG 2.5 hours prior to cocaine 20 mg/kg
[8] = acquisition, 150 mg/kg GVG/Saline pairing
[9] = acquisition, 300 mg/kg GVG 2.5 hours prior to cocaine 20 mg/kg
[10] = acquisition, 300 mg/kg GVG/Saline pairing
[11] = expression, Saline/Cocaine pairings, GVG 75 mg/kg on test day
[12] = expression, Saline/Cocaine pairings, GVG 112 mg/kg on test day
[13] = expression, Saline/Cocaine pairings, GVG 150 mg/kg on test day
[14] = expression, Saline/Cocaine pairings, GVG 300 mg/kg on test day
[15] = expression, Saline/Saline pairings, GVG 112 mg/kg on test day
[16] = expression, Saline/Saline pairings, GVG 150 mg/kg on test day
[17] = expression, Saline/Saline pairings, GVG 300 mg/kg on test day
[18] = acquisition, GVG 37.5 mg/kg i.p. 2.5 hours before nicotine 0.4 mg/kg s.c., 8 pairings
[19] = acquisition, GVG 75 mg/kg i.p. 2.5 hours before nicotine 0.4 mg/kg s.c., 8 pairings
[20] = acquisition, GVG 75 mg/kg i.p. 2.5 hours prior to nicotine 0.4 mg/kg s.c. (Table XII)
[21] = expression, Saline/Nicotine pairings, GVG 37.5 mg/kg on test day
[22] = expression, Saline/Nicotine pairings, GVG 75 mg/kg on test day
[23] = expression, Saline/Nicotine pairings, GVG 150 mg/kg on test day

C=CC(N)CCC(=O)O (racemic) [GVG, 4-amino-5-hexanoic acid]
acquisition and expression of cocaine-induced CPP (male Sprague-Dawley rats; GVG 75 mg/kg, cocaine 20 mg/kg): not
Time spent in chambers, Paired (male Sprague-Dawley rats; [3]): 9.1 ± 1.1 min
Time spent in chambers, Unpaired (male Sprague-Dawley rats; [3]): 5.9 ± 1.2 min
Time spent in chambers, Paired (male Sprague-Dawley rats; [4]): 7.3 ± 0.5 min
Time spent in chambers, Unpaired (male Sprague-Dawley rats; [4]): 7.7 ± 0.6 min
Time spent in chambers, Paired (male Sprague-Dawley rats; [5]): 8.2 ± 0.5 min
Time spent in chambers, Unpaired (male Sprague-Dawley rats; [5]): 6.8 ± 0.5 min
Time spent in chambers, Paired (male Sprague-Dawley rats; [6]): 7.6 ± 0.6 min
Time spent in chambers, Unpaired (male Sprague-Dawley rats; [6]): 7.4 ± 0.6 min
Time spent in chambers, Paired (male Sprague-Dawley rats; [7]): 7.9 ± 0.8 min
Time spent in chambers, Unpaired (male Sprague-Dawley rats; [7]): 7.1 ± 0.8 min
Time spent in chambers, Paired (male Sprague-Dawley rats; [8]): 7.8 ± 0.6 min
Time spent in chambers, Unpaired (male Sprague-Dawley rats; [8]): 7.2 ± 0.6 min
Time spent in chambers, Paired (male Sprague-Dawley rats; [9]): 7.6 ± 0.7 min
Time spent in chambers, Unpaired (male Sprague-Dawley rats; [9]): 7.2 ± 0.7 min
Time spent in chambers, Paired (male Sprague-Dawley rats; [10]): 7.2 ± 0.4 min
Time spent in chambers, Unpaired (male Sprague-Dawley rats; [10]): 7.8 ± 0.4 min
Time spent in chambers, Paired (male Sprague-Dawley rats; [11]): 10.6 ± 0.6^3 min
Time spent in chambers, Unpaired (male Sprague-Dawley rats; [11]): 4.4 ± 0.9 min
Time spent in chambers, Paired (male Sprague-Dawley rats; [12]): 8.1 ± 0.7 min
Time spent in chambers, Unpaired (male Sprague-Dawley rats; [12]): 6.9 ± 0.6 min
Time spent in chambers, Paired (male Sprague-Dawley rats; [13]): 7.9 ± 0.3 min
Time spent in chambers, Unpaired (male Sprague-Dawley rats; [13]): 7.1 ± 0.3 min
Time spent in chambers, Paired (male Sprague-Dawley rats; [14]): 7.9 ± 0.5 min
Time spent in chambers, Unpaired (male Sprague-Dawley rats; [14]): 7.1 ± 0.6 min
Time spent in chambers, Paired (male Sprague-Dawley rats; [15]): 7.2 ± 0.3 min
Time spent in chambers, Unpaired (male Sprague-Dawley rats; [15]): 7.8 ± 0.3 min
Time spent in chambers, Paired (male Sprague-Dawley rats; [16]): 7.7 ± 0.2 min
Time spent in chambers, Unpaired (male Sprague-Dawley rats; [16]): 7.3 ± 1.1 min
Time spent in chambers, Paired (male Sprague-Dawley rats; [17]): 7.3 ± 0.4 min
Time spent in chambers, Unpaired (male Sprague-Dawley rats; [17]): 7.7 ± 0.3 min
acquisition of nicotine-induced CPP (rats; GVG 37.5 mg/kg): did not significantly block and not
acquisition phase of nicotine-induced CPP (rats; GVG 75 mg/kg): significantly blocked; also recorded: abolish
Time spent in chambers, Paired (rats; [18]): 8.8 ± 0.5 min
Time spent in chambers, Unpaired (rats; [18]): 6.2 ± 0.5 min
Time spent in chambers, Paired (rats; [19]): 6.9 ± 0.9 min
Time spent in chambers, Unpaired (rats; [19]): 8.1 ± 0.9 min
Time spent in chambers, Paired (rats; [20]): 6.4 ± 0.3^4 min
Time spent in chambers, Unpaired (rats; [20]): 8.6 ± 0.3^5 min
Time spent in chambers, Paired (rats; [21]): 6.8 ± 1.0 min
Time spent in chambers, Unpaired (rats; [21]): 8.2 ± 1.0 min
Time spent in chambers, Paired (rats; [22]): 6.4 ± 0.3 min
Time spent in chambers, Unpaired (rats; [22]): 8.6 ± 0.3 min
Time spent in chambers, Paired (rats; [23]): 5.0 ± 0.9 min
Time spent in chambers, Unpaired (rats; [23]): 10.0 ± 0.9 min
Stereotypies on Day 15 (freely moving rats; 150 mg/kg i.p. of GVG 2 hrs. before, cocaine 15 mg/kg i.p. rechallenge after sensitizing regimen): 2.3 ± 0.6
expression of cocaine-induced sensitization (freely moving rats; GVG 150 mg/kg i.p. 2.5 hours prior to the cocaine challenge): abolished the expression of cocaine-induced sensitization
Stereotypy score on Day 1 (freely moving rats; cocaine 15 mg/kg i.p., baseline of the group later given GVG (no GVG on Day 1)): 2.9 ± 0.4
inhibition at 300 mg/kg [1]: ~38%
inhibition at 600 mg/kg [1]: ~58%
excretion [2]: excreted primarily unchanged in the urine; also recorded: excreted primarily in the unchanged form by the kidneys
interaction with the hepatic microsomal enzymes [2]: does not interact with the hepatic microsomal enzymes

From US6890951B2, “Treatment of addiction and addiction-related behavior” (Brookhaven Science Associates LLC, priority 1998, dated 2005)
